# Measurements taken from patent publication US20070037785A1, “Novel dipeptidyl peptidase IV inhibitors used for functionally influencing different cells and treating immunological, infammatory, neuronal, and other diseases” (priority 2003, published 2007).
# Test system: Dextran Sulfate-induced Colitis of Mice
# Assay: Dextran sulfate-induced colitis of mice, disease score
# Type: in vivo, Balb/c mice
# Conditions: 10 pg single inhibitor i.p. on three successive days from day 5; day 7; slight, but insignificant
row,SMILES,reduction of the heaviness of the disease (score) [%]
1,CCCCC[C@H](CC(=O)NO)C(=O)N[C@H](C(=O)N1CCC[C@H]1CO)C(C)C [Actinonine],−16.5

# Target: dipeptidyl peptidase IV (Homo sapiens, UniProt P27487)
# Assay: biochemical
# Conditions: values marked with "*" are ID50 values; read-out: IC50DPIV, values marked with "*" = ID50
# Chain of dipeptidyl peptidase IV (P27487 whole entry, species assumed): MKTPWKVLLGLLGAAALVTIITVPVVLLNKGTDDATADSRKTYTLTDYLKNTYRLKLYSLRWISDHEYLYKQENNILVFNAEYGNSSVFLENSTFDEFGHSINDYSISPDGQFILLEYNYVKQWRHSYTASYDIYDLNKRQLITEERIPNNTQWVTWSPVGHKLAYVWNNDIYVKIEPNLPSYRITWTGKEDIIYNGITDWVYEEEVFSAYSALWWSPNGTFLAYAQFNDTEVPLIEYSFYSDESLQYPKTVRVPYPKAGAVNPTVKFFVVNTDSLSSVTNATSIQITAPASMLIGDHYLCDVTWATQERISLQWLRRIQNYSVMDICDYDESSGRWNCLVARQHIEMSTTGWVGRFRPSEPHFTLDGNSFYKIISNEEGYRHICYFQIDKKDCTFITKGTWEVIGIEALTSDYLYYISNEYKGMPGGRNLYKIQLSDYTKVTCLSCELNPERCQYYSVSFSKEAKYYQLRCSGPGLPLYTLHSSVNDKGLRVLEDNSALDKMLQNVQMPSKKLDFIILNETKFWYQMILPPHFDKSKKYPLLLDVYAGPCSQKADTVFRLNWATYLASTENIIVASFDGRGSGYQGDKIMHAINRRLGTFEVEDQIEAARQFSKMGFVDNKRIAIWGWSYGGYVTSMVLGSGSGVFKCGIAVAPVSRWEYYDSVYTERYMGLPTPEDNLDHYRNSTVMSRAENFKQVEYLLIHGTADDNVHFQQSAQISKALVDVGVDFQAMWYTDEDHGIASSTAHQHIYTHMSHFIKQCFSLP
row,SMILES,IC50 [µM]
1,O=C(Nc1ccccc1CC(=O)N1CCCNCC1)c1cccnc1Sc1ccccc1 [D1.002],1.4
2,O=C(Oc1cccc(-n2cnnn2)c1)C1CC1 [D4.089],98.4
3,CC1(C)NCC(c2ccccc2)CC1O (centres unmarked) [D4.088],96.2
4,O=C(Nc1cccc(/N=C/c2cc(/N=N\c3ccccc3Cl)ccc2O)c1)c1ccco1 [D6.003],2.5
5,Nc1nc2ccc(S(=O)(=O)c3ccc4nc(N)sc4c3)cc2s1 [D3.118],417
6,O=C(CNC(=O)c1cccc(F)c1)N/N=C/c1cc(Br)cc(Br)c1OC(=O)c1cccc(Br)c1 [D10.102],91.9
7,COc1ccc(N(C(C)C(=O)N/N=C/c2ccc(Cl)cc2Cl)S(C)(=O)=O)cc1 (centres unmarked) [D10.003],2.9
8,CCCn1c(N2CCN(CC(=O)Nc3c(C(=O)OCC)[nH]c4ccc(F)cc34)CC2)nc2c1c(=O)[nH]c(=O)n2C [D13.004],69.8
9,O=C(COc1c(O)cc(Br)cc1Br)N/N=C/c1ccc(O)c(O)c1 [D10.119],177
10,Cc1cc(NNC(=O)COc2ccc(Cl)cc2Cl)nc(NS(=O)(=O)c2ccccc2)n1 [D9.015],465
11,CCOC(=O)c1c(NC(=O)CSc2nc(=O)cc(N)n2-c2cccc(C)c2)sc2c1CCC2 [D3.116],363
12,CN(C)c1ccc(C2C3C(=O)N(c4ccccc4)C(=O)C3ON2c2ccc(Cl)cc2)cc1 (centres unmarked) [D13.007],344
13,CN(C)c1ccc(N2CC(C)(C)C2=O)cc1 [D1.001],1.2
14,COc1ccc2nc(NC(=O)COC(=O)CN3C(=O)c4ccccc4C3=O)sc2c1 [D3.103],224
15,COc1ccc(-n2c(=O)c3c4c(sc3n3c(SCc5ccc(Br)cc5)nnc23)COC(C)(C)C4)cc1 [D3.113],317
16,CCOc1cc(/C=N/NC(=O)c2ccccc2)ccc1O [D10.123],218
17,COc1ccc(/C=N/NC(=O)C(=O)Nc2ccc(Cl)cc2C)c(OC)c1 [D10.134],275

# Same assay, conditions: values without "*" = IC-50; read-out: IC50DPIV
row,SMILES,IC50 [µM]
1,COc1ccc(C(=O)CS/C2=N/CCCCCC2)cc1 [D1.004],36.5
2,O=C1c2ccc(-c3nc4ccccc4c(=O)o3)cc2C(=O)N1c1ccc(Cc2ccc(N3C(=O)c4ccc(-c5nc6ccccc6c(=O)o5)cc4C3=O)cc2)cc1 [D3.032],27.2
3,CCCCOC(=O)c1cc(-c2ccc(/C=C3/C(=O)N(CC(C)O)C(=O)C(C#N)=C3C)o2)ccc1Cl (centres unmarked) [D6.070],49
4,O=C(N/N=C/c1cccc(Oc2ccccc2)c1)c1cc(Br)cc(Br)c1O [D10.054],33.3
5,CS(=O)(=O)N1CCN(C(=O)Nc2ccc(C(F)(F)F)cc2)C1C(=O)NCc1cccc(N)c1 (centres unmarked) [D9.007],40.5
6,COc1ccc(Cl)cc1N1C(=O)CSCC1=O [D4.041],30.7
7,N#Cc1c(NC(=O)C(C(F)(F)F)C(F)(F)F)sc2c1CCCC2 [D3.049],39.5
8,CCOC(=O)c1c(C)oc2c1c1c(c3ccccc32)OCN(C2CCS(=O)(=O)C2)C1 (centres unmarked) [D6.054],34.2
9,CC(C)C1=CC23CCC4C(C)(C(=O)O)CCCC4(C)C2CC1C1C(=O)N(c2cccc(O)c2)C(=O)C13 (centres unmarked) [D3.074],55.4
10,O=C(N/N=C\c1ccc(OCc2ccccc2Cl)cc1)c1ccc2c(c1)OCO2 [D10.090],62.1
11,O=C(Nc1c[nH]c(=O)[nH]c1=O)c1ccc2c(c1)C(=O)N(c1ccc(C(=O)c3ccccc3)cc1)C2=O [D3.048],38.2
12,C=CCOC(=O)c1cc(-c2ccc(/C=C3/C(=O)N(CCCO)C(=O)C(C#N)=C3C)o2)ccc1Cl [D6.065],44.6
13,COc1ccccc1C1NCC(c2ccc([N+](=O)[O-])cc2)O1 (centres unmarked) [D4.077],70.1
14,CC1=C(C#N)C(=O)N(CC(C)O)C(=O)/C1=C/c1ccc(-c2ccc(Br)cc2)o1 (centres unmarked) [D4.080],73.8
15,O=C(Nc1cccc(/N=C/c2cc(I)cc(I)c2O)c1)c1ccco1 [D11.002],9.2
16,CC(C)c1ccc2c(c1)[C@@H]1C=CC[C@@H]1[C@H](c1ccc(C(=O)O)cc1)N2 [D3.062],46.4
17,CCC(O)(CC)C(=O)NNc1ccccc1C [D14.003],5.7
18,Brc1cccc(/C=N/Nc2nnc3c(n2)[nH]c2ccccc23)c1 [D10.015],12.2
19,COC(=O)C(CC(C)C)Nc1ccc(N2C(=O)CCCC2=O)cc1[N+](=O)[O-] (centres unmarked) [D4.021],15.4
20,CCCOC(=O)c1cc(-c2ccc(/C=C3\C(=O)N(CCCO)C(=O)C(C#N)=C3C)o2)ccc1Cl [D4.081],76.3
21,CCn1c(N2CCN(c3ccc(OC)cc3)CC2)nc2c1c(=O)[nH]c(=O)n2C [D6.028],19.2
22,Cc1ccc(Cn2cccc2/C=N/NC(=S)Nc2ccc(C)c(C)c2)cc1 [D6.078],55.2
23,Nc1nonc1-n1nnc(C(=O)NN=C2c3ccccc3-c3ccccc32)c1-c1ccccc1 [D6.013],10.1
24,COc1c(O)ccc(/C=N/NC(=O)COc2c(Br)cc(Br)cc2Br)c1[N+](=O)[O-] [D10.079],55.4

row,SMILES,IC50 [µM]
1,Cc1cc2ccccc2n1CCNC(=O)c1cccs1 [D6.044],28.8
2,CCCn1c(N2CCN(CC(=O)c3c[nH]c4ccccc34)CC2)nc2c1c(=O)[nH]c(=O)n2C [D12.012],30.8
3,CCCCOC(=O)c1cc(-c2ccc(/C=C3/C(=O)N(CC(C)O)C(=O)C(C#N)=C3C)o2)ccc1Cl (centres unmarked) [D12.027],49
4,COC(=O)C1=C(N)N2C(=O)CSC2=C(C(=O)OC)C1 [D3.008],34.1
5,Cc1ccccc1SCC(=O)N/N=C/c1ccc(C)c([N+](=O)[O-])c1 [D10.088],58.8
6,CCOc1cc(/C=N/NC(=O)c2cc(C)oc2C)ccc1O [D10.025],16.2
7,CCN(CC)c1ccc(/C=C(/NC(=O)c2ccccc2)C(=O)N/N=C/c2c(C)c(Br)c(O)c(Br)c2O)cc1 [D10.037],20.4
8,CCOc1cc(/C=N/NC(=O)c2cc(O)c(O)c(O)c2)ccc1O [D10.034],19.1
9,O=C1NC23NC(=O)NC2(N1)c1ccccc1-c1ccccc13 (centres unmarked) [D4.053],43.1
10,CCOc1cc(/C=N/NC(=O)c2cc(C)n[nH]2)ccc1O [D10.023],13.6
11,Cc1nc2c(sc(=S)n2C)c(=O)[nH]1 [D3.061],46
12,O=C1CCCC(=O)N1c1ccc(NCCc2ccc(O)cc2)c([N+](=O)[O-])c1 [D5.037],54.8
13,CCOC(=O)c1cc(-c2ccc(/C=C3/C(=O)NC(=O)C(C#N)=C3C)o2)ccc1Cl [D4.069],56.7
14,COc1ccc(C(=O)N/N=C/c2ccc(Cl)cc2Cl)cc1 [D10.063],40.4
15,CCCn1c(N2CCN(CC(=O)c3c(C)n(C)c4ccccc34)CC2)nc2c1c(=O)[nH]c(=O)n2C [D6.019],15.2
16,CCOCCCNc1ccc(N2C(=O)CCCC2=O)cc1[N+](=O)[O-] [D4.048],36.8
17,O=C(N/N=C/c1cc([N+](=O)[O-])ccc1O)c1cccc2cc[nH]c12 [D10.009],8.1
18,O=C1c2ccc(Oc3ccc([N+](=O)[O-])cc3[N+](=O)[O-])cc2C(=O)N1c1ccccc1 [D4.028],20.6
19,CC(/C=N/NC(=O)CNc1ccc(C)cc1)=C\c1ccc(/C=C(C)/C=N/NC(=O)CNc2ccc(C)cc2)cc1 [D10.038],20.5
20,Cn1c(=O)n(Cc2ccccc2)c(=O)c2c1nc(N1CCNCC1)n2Cc1ccccc1 [D5.034],48.3
21,COc1ccccc1/C=N/NC(=O)c1cccc([N+](=O)[O-])c1 [D10.017],12.3
22,CCCOC(=O)c1cc(-c2ccc(/C=C3/C(=O)N(CC(C)O)C(=O)C(C#N)=C3C)o2)ccc1Cl (centres unmarked) [D6.095],82.2
23,COC(=O)C1=CN(N(C(C)=O)C(C)=O)C(=O)CC1 [D12.033],60.7
24,O=C1CCCC(=O)N1c1ccc(NCCOCCO)c([N+](=O)[O-])c1 [D4.065],55

# Test system: Ovalbumine-induced Asthma Bronchiale of Mice
# Assay: Ovalbumine-induced asthma bronchiale of mice, pulmonal function (EF50)
# Type: in vivo, Balb/c Mice
# Conditions: 0.1 mg (of each) inhibitor i.p. on days 28-35; FIG. 3A
# Description: Therapeutic Effect of the Combined Inhibition of Dipeptidyl Peptidase IV and of Enzymes Having an Analogous Effect as well as of the Alanyl Aminopeptidase and of Enzymes Having an Analogous Effect on the Ovalbumine-induced Asthma Bronchiale of Mice (Animal Model of Human Asthma Bronchiale).
# Female Balb/c Mice were sensitized for the antigen ovalbumine capable of inducing asthma bronchiale by an intreperitoneal administration of […] ovalbumine on the days 0, 14 and 21. On day 27/28, the animals received a boostering dose of ovalbumine by inhalation [vD3]. After an intreperitoneal administration of the peptidase inhibitors on the days 28-35, there was effected an intranasal ovalbumine challenge on day 35, as well as a check of the allergic premature reaction via the pulmonal function. There were measured: the average expiratory flux (EF50), the tidal volume, the respiration rate and the minute volume as well as the number of eosinophilic granulocytes in the bronchoalveolar lavage. 8 to 10 animals were used per experimental group. By way of example, in FIG. 3A, there is summarized the effect of the peptidase inhibitors on the reduction of the EF50 value. […] Group E represents animals which were not sensitized by OVA, but which were subjected—beyond that—all procedures to which the animal groups A to D were subjected.
row,SMILES,therapeutic effect on the reduction of the EF50 value
1,N[C@@H](CCCCNC(=O)OCc1ccc([N+](=O)[O-])cc1)C(=O)N1CCCC1 [Lys[Z(NO2)] pyrrolidide],showed a therapeutic effect
2,CCCCC[C@H](CC(=O)NO)C(=O)N[C@H](C(=O)N1CCC[C@H]1CO)C(C)C [Actinonine],showed a therapeutic effect
